Measured values published in US20250145642A1, “BICYCLIC HETEROARENES AND METHODS OF THEIR USE” (Kineta, Inc., priority 2021, published 2025).
Read-outs that look alike come from different tables or passages of the source.

Columns and labels:
[1] = tested on: PIKFYVE TDP-43 yeast strain; experiment: Propidium iodide viability assay, PIKFYVE TDP-43 yeast strain; type: cell-based; conditions: for PIKfyve TDP-43 (active/inactive): PIKFYVE TDP-43 yeast model; for IC50: Saccharomyces cerevisiae, PIKFYVE TDP-43 yeast strain, reduction in PI-positive cells, highest concentration 15 μM, read-out: BIKFYVE TDP-43 (IC50)
Excerpt: (§1) Generation of TDP-43 yeast model expressing human PIKfyve. Human PIKFYVE (“entry clone”) was cloned into pAG416GPDccdB (“destination vector”) according to standard Gateway cloning protocols (Invitrogen, Life Technologies). The resulting pAG416GPD-PIKFYVE plasmids were amplified in E. coli and plasmid identity confirmed by restriction digest and Sanger sequencing. Lithium acetate/polyethylene glycol-based transformation was used to introduce the above PIKFYVE plasmid into a BY4741 yeast strain auxotrophic for the ura3 gene and deleted for two transcription factors that regulate the xenobiotic efflux pumps, a major efflux pump, and FAB1, the yeast ortholog of PIKFYVE (MATa, snq2::KILeu2; pdr3::KIura3;pdr1::NATMX; fab1::G418^R, his 3;leu2;ura3;met15;LYS2+) (FIG. 2). Transformed yeast were plated on solid agar plates with complete synthetic media lacking uracil (CSM-ura) and containing 2% glucose. Individual colonies harboring the control or PIKFYVE TDP-43 plasmids were recovered. A plasmid containing wild-type TDP-43 under the transcriptional control of the GAL1 promoter and containing the hygromycin-resistance gene as a selectable marker was transformed into the fab1::G418^R pAG416GPD-PIKFYVE yeast strain (FIG. 1). Transformed yeast were plated on CSM-ura containing 2% glucose and […] G418 after overnight recovery in media lacking antibiotic. Multiple independent isolates were further evaluated for cytotoxicity and TDP-43 expression levels.
(§2) Viability Assay. A control yeast strain with the wild-type yeast FAB1 gene and TDP-43 (“FAB1 TDP-43”, carries empty pAG416 plasmid), and the “PIKFYVE TDP-43” yeast strain, were assessed for toxicity using a propidium iodide viability assay. Both yeast strains were transferred from solid CSM-ura/2% glucose agar plates into 3 mL of liquid CSM-ura/2% glucose media for 6-8 hours at 30° C. with aeration. Yeast cultures were then diluted to an optical density at 600 nm wavelength (OD600) of 0.005 in 3 mL of CSM-ura/2% raffinose and grown overnight at 30° C. with aeration to an OD600 of 0.3-0.8. Log-phase overnight cultures were diluted to OD600 of 0.005 in CSM-ura containing either 2% raffinose or galactose and 150 μL dispensed into each well of a flat bottom 96-well plates. Compounds formulated in 100% dimethyl sulfoxide (DMSO) were serially diluted in DMSO and 1.5 μL diluted compound transferred to the 96-well plates using a multichannel pipet. Wells containing DMSO alone were also evaluated as controls for compound effects. Tested concentrations ranged from 15 μM to 0.11 μM. Cultures were immediately mixed to ensure compound distribution and covered plates incubated at 30° C. for 24 hours in a stationary, humified incubator.
(§3) Upon the completion of incubation, cultures were assayed for viability using propidium iodide (PI) to stain for dead/dying cells. A working solution of PI was made where, for each plate, 1 μL of 10 mM PI was added to 10 mL of CSM-ura (raffinose or galactose). The final PI solution (50 μL/well) was dispensed into each well of a new round bottom 96-well plate. The overnight 96-well assay plate was then mixed with a multichannel pipet and 50 μL transferred to the PI-containing plate. This plate was then incubated for 30 minutes at 30° C. in the dark. A benchtop flow cytometer (Miltenyi MACSquant) was then used to assess red fluorescence (B2 channel), forward scatter, and side scatter (with following settings: gentle mix, high flow rate, fast measurement, 10,000 events). Intensity histograms were then gated for “PI-positive” or “PI-negative” using the raffinose and galactose cultures treated with DMSO as controls. The DMSO controls for raffinose or galactose-containing cultures were used to determine the window of increased cell death and this difference set to 100. All compounds were similarly gated and then compared to this maximal window to establish the percent reduction in PI-positive cells.
Biochemical and Efficacy Assays. […]

FAB1 TDP-43 yeast strain = experiment: Propidium iodide viability assay, FAB1 TDP-43 yeast strain; type: cell-based; conditions: for FAB1 TDP-43 (active/inactive): FAB1 TDP-43 yeast model
Excerpt: as §1, §2, §3

[2] = biological target: PIKfyve (PIKFYVE-NanoLuc fusion in HEK293 cells) (Homo sapiens (Human), UniProt Q9Y2I7); experiment: NanoBRET TE Intracellular Kinase Assay, K-8 (Promega) cell-based assay; conditions: transfected HEK293 cells, 2 hours, read-out: hPIKfyve BRET IC50
Description: NanoBRET™ TE Intracellular Kinase Assay, K-8 (Promega) Cell-Based Assay. Intracellular inhibition of PIKfyve was assayed using Promega's NanoBRET™ TE Intracellular Kinase Assay, K-8 according to manufacturer's instructions. A dilution series of test compounds was added for 2 hours to HEK293 cells transfected for a minimum of 20 hours with PIKFYVE-NanoLuc® Fusion Vector (Promega) containing a full-length PIKfyve according to manufacturer's specifications in a 96-well plate. Kinase activity was detected by addition of a NanoBRET™ tracer reagent, which was a proprietary PIKfyve inhibitor appended to a fluorescent probe (BRET, bioluminescence resonance energy transfer). Test compounds were tested at concentrations of 10, 3, 1, 0.3, 0.1, 0.03, 0.01, 0.003 μM. BRET signals were measured by a GloMax®Discover Multimode Microplate Reader (Promega) using 0.3 sec/well integration time, 450 BP donor filter and 600 LP acceptor filters. Active test compounds that bound PIKfyve and displaced the tracer reduced BRET signal. IC50 values were then calculated by fitting the data to the normalized BRET ratio.

[3] = biological target: full-length human PIKFYVE (N-terminal GST-fusion) (Homo sapiens (Human), UniProt Q9Y2I7, L932S/Q1183K/Q995L/S1033A/S696N/T998S); experiment: PIKfyve biochemical assay (ADP-Glo Kinase assay, Carna Biosciences)
Summary of the method: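 Baculovirus-expressed, glutathione-purified GST-tagged full-length human PIKFYVE (S696N/L932S/Q995L/T998S/S1033A/Q1183K) reacted with substrate and ATP in 50 mM MOPS, 1 mM DTT, pH 7.2, 1 h at room temperature. ADP formed read by ADP-Glo luminescence.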

[4] = ADP-Glo, full-length human GST-PIKFYVE, 10 μM to 3 nM, read-out: hPIKfyve IC50

Sequence of full-length human PIKFYVE (N-terminal GST-fusion) (Q9Y2I7 whole entry S696N/L932S/Q995L/T998S/S1033A/Q1183K, the tested form may be a part): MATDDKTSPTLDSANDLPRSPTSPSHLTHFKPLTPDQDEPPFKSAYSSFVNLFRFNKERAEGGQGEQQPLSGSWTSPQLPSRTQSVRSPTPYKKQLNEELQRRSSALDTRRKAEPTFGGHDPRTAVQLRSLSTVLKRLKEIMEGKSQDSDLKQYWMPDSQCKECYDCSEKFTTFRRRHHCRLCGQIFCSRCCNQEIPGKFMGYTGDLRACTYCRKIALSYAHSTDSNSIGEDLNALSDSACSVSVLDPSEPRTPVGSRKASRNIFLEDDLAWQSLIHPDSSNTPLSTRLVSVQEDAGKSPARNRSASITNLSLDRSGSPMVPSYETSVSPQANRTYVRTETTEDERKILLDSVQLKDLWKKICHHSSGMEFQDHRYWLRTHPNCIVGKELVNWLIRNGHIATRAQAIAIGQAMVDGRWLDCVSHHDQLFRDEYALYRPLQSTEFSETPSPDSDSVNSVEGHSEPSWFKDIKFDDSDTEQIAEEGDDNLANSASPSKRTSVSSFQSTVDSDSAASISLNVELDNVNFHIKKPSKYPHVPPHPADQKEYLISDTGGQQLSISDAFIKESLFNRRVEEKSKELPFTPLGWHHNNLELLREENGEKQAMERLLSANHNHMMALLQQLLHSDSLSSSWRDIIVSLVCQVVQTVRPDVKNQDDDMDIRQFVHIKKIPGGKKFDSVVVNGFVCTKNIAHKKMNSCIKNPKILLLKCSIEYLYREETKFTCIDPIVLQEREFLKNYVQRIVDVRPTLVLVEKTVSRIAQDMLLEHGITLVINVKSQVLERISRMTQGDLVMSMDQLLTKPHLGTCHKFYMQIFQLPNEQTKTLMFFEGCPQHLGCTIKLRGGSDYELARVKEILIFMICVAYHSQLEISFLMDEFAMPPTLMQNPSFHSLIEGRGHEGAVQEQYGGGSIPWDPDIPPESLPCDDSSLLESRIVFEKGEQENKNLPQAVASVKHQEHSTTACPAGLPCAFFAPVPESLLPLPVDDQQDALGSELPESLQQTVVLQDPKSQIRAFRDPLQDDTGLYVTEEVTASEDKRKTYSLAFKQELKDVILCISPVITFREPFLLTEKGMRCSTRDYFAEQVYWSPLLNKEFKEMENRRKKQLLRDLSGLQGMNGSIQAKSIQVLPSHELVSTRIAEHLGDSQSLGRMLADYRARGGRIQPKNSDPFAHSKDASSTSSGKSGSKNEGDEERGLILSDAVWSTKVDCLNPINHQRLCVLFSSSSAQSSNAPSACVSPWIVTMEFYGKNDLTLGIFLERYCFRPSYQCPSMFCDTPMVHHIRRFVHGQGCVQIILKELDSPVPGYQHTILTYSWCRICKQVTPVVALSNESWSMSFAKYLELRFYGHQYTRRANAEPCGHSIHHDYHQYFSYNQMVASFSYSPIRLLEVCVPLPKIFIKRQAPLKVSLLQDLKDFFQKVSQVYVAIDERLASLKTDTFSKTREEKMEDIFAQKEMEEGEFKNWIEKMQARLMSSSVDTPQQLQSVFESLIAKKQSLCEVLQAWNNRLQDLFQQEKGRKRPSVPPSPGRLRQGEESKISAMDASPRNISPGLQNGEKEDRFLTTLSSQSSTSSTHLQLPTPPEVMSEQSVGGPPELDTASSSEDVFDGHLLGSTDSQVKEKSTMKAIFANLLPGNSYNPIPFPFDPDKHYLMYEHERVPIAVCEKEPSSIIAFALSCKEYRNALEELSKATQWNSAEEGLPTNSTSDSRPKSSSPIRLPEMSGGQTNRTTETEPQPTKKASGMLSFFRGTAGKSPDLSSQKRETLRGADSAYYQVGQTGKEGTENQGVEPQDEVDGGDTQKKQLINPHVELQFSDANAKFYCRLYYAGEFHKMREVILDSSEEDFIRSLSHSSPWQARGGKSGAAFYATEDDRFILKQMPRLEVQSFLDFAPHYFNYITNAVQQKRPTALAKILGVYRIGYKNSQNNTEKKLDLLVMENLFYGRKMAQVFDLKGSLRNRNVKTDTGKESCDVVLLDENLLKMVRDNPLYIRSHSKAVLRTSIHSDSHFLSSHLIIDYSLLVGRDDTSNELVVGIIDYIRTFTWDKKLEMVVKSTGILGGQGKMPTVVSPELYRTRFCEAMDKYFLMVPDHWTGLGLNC
Sequence of PIKfyve (PIKFYVE-NanoLuc fusion in HEK293 cells) (Q9Y2I7 whole entry, the tested form may be a part): as the sequence (Q9Y2I7 whole entry S696N/L932S/Q995L/T998S/S1033A/Q1183K, the tested form may be a part) above, with N696S, S932L, L995Q, S998T, A1033S, K1183Q counted along it

For Cc1cccc(/C=N/Nc2cc(N3CC4CC3CO4)n3nc(-c4ccncc4)cc3n2)c1 (stereo not drawn), the “PIKfyve TDP-43 (active/inactive)” value [1] was “Active” and the “FAB1 TDP-43 (active/inactive)” value (FAB1 TDP-43 yeast strain) was “Inactive”.

Compound Clc1nc(N2CCOCC2)nc2c1CCN2c1ccccc1 [Compound 1, 4-(4-chloro-7-phenyl-6,7-dihydro-5H-pyrrolo[2,3-d]pyrimidin-2-yl)morpholine] has an IC50 [2] of 100 to 1000 nM and an IC50 [3, 4] of 100 to 1000 nM.

Work on c1ccc(N2CCc3c(OCc4cccnc4)nc(N4CCOCC4)nc32)cc1 [drawing 539] yielded an IC50 [1] of 2680 nM.

Cc1cccc(/C=N/Nc2nc(N3CCOCC3)c3ncccc3n2)c1 showed an IC50 [1] of 8210 nM.

CN(C)c1cc(N2CCOCC2)n2nc(-c3ccncc3)cc2n1 was tested, and the “PIKfyve TDP-43 (active/inactive)” value [1] was “Inactive” and the “FAB1 TDP-43 (active/inactive)” value (FAB1 TDP-43 yeast strain) was “Inactive”.

For Cc1cccc(/C=N/Nc2nc3c(c(N4CCOCC4)n2)N=C(c2ccncc2)C3C)c1 (stereo not drawn), the “PIKfyve TDP-43 (active/inactive)” value [1] was “Active”, the IC50 ([3]; ADP-Glo with full-length PIKfyve, read-out: PIKfyve IC50) was 4.9 nM and the “FAB1 TDP-43 (active/inactive)” value (FAB1 TDP-43 yeast strain) was “Inactive”.

For Cc1cccc(/C=N/Nc2cc(N3CCOCC3)n3nc(-c4ccncc4)cc3n2)c1 [drawing 514], the “PIKfyve TDP-43 (active/inactive)” value [1] was “Active” and the “FAB1 TDP-43 (active/inactive)” value (FAB1 TDP-43 yeast strain) was “Inactive”.

c1ccc(-c2cccc(-c3cc(N4CCOCC4)n4nc(-c5ccncc5)cc4n3)n2)cc1 was tested, and the IC50 [1] was 230 nM.

For Cn1c(-c2ccncc2)nc2c(N3CCOCC3)ncnc21, the “PIKfyve TDP-43 (active/inactive)” value [1] was “Inactive” and the “FAB1 TDP-43 (active/inactive)” value (FAB1 TDP-43 yeast strain) was “Inactive”.

In the case of c1ccc(N2CCc3c(OC4CCOCC4)nc(N4CCOCC4)nc32)cc1 [Compound 21, 4-(7-phenyl-4-((tetrahydro-2H-pyran-4-yl)oxy)-6,7-dihydro-5H-pyrrolo[2,3-d]pyrimidin-2-yl)morpholine], the IC50 [2] is reported as 100 to 1000 nM and the IC50 [3, 4] is reported as 100 to 1000 nM.

Cc1cccc(/C=N/Nc2cc(N3CCOCC3)nc(OCCc3ccc(CN)cc3)n2)c1 showed an IC50 [1] of 1120 nM.

For c1ccc(-c2ccnc(-c3cc(N4CCOCC4)nc(OCc4ccncc4)n3)n2)cc1, the IC50 [1] was 1450 nM.

In the case of Oc1cc(-c2ccccc2)nn1-c1cc(N2CCOCC2)n2nc(-c3ccncc3)nc2n1, the IC50 [1] is reported as 693 nM.

For c1ccc(-n2ncc3c(OCc4cccnc4)nc(N4CCOCC4)nc32)cc1 [Compound 132, 4-(1-phenyl-4-(pyridin-3-ylmethoxy)-1H-pyrazolo[3,4-d]pyrimidin-6-yl)morpholine], the IC50 [2] was 100 to 1000 nM and the IC50 [3, 4] was 10 to 100 nM.

For Cc1cccc(/C=N/Nc2cc(N3CCOCC3)n3nc(-c4ccncc4)cc3n2)c1 [APY0201, reference compound], the “propidium iodide-positive dead cells in PIKFYVE TDP-43” value ([1]; 0.23 μM, FIG. 6) was “reduced the population of propidium iodide-positive dead cells”, the “concentrations affording increased viability in PIKFYVE TDP-43” value ([1]; PIKFYVE TDP-43 model) was “Concentrations ranging from 0.5 mM to less than 100 nM afforded increased viability” and the “viable cells in FAB1 TDP-43 (propidium iodide)” value (FAB1 TDP-43 yeast strain; across a range of compound concentrations (only 0.23 μM is shown), FIG. 5) was “no increase in viable cells”.

Oc1cc(C2CCOCC2)nn1-c1cc(N2CCOCC2)n2nc(-c3ccncc3)cc2n1 gave an IC50 [1] of 9100 nM.

With Fc1cccc(-c2ccnn2-c2nc(N3CCOCC3)c3ncccc3n2)c1 the IC50 [1] was 5750 nM and the IC50 ([3]; values plotted in FIG. 7, read-out: PIKFYVE Biochemistry (IC50)) was > 10000 nM.

Work on c1ccc(-n2ncc3c(N4CCOCC4)nc(OCc4cccnc4)nc32)cc1 [Compound 131, 4-(1-phenyl-6-(pyridin-3-ylmethoxy)-1H-pyrazolo[3,4-d]pyrimidin-4-yl)morpholine] yielded an IC50 [3, 4] of 1000 to 10000 nM.

In the case of c1cncc(N2CCc3c(N4CCN5CCOCC5C4)nc(N4CCOCC4)nc32)c1 (stereo not drawn) [Compound 79, 8-(2-morpholino-7-(pyridin-3-yl)-6,7-dihydro-5H-pyrrolo[2,3-d]pyrimidin-4-yl)octahydropyrazino[2,1-c][1,4]oxazine], the IC50 [3, 4] is reported as 1000 to 10000 nM.

Cc1cccc(/C=N/Nc2nc(N3CCOCC3)c3nc(-c4ccncc4)n(C)c3n2)c1 was tested, and the IC50 [1] was 4720 nM.

In the case of CC(=O)N1CCC(COc2nc(N3CCOCC3)nc3c2CCN3c2cccnc2)C1 (stereo not drawn) [Compound 36, 1-(3-(((2-morpholino-7-(pyridin-3-yl)-6,7-dihydro-5H-pyrrolo[2,3-d]pyrimidin-4-yl)oxy)methyl)pyrrolidin-1-yl)ethan-1-one], the IC50 [3, 4] is reported as 100 to 1000 nM.

c1ccc(N2CCc3c(-c4ccncc4)nc(N4CCOCC4)nc32)cc1 [Compound 92, 4-(7-phenyl-4-(pyridin-4-yl)-6,7-dihydro-5H-pyrrolo[2,3-d]pyrimidin-2-yl)morpholine] showed an IC50 [3, 4] of 10 to 100 nM.

In the case of N#Cc1cc(N2CCOCC2)n2nc(-c3ccncc3)cc2n1, the “PIKfyve TDP-43 (active/inactive)” value [1] is reported as “Inactive” and the “FAB1 TDP-43 (active/inactive)” value (FAB1 TDP-43 yeast strain) is reported as “Inactive”.
